Source: ChEMBL document CHEMBL1142900, “Biological profile of new apoptotic agents based on 2,4-pyrido[2,3-d]pyrimidine derivatives” (Bioorg Med Chem, 2007)
Calls of active or inactive are those of the source. The rule behind the calls is not given here.

Assays:
[1] = system: HT-29; assay: Growth inhibition of human HT29 cells by neutral red assay; assay type: functional, cell-based
[2] = system: T-24; assay: Growth inhibition of human T24 cells by neutral red assay; assay type: functional, cell-based
[3] = system: MDA-MB-231; assay: Growth inhibition of human MDA-MB-231 cells by neutral red assay; assay type: functional, cell-based
[4] = Growth inhibition of human HTB26 cells by neutral red assay; assay type: functional, cell-based
[5] = system: T-24; assay: Effect on apoptosis in T24 cells assessed as increase in caspase 3 activation after 14 hrs relative to control by flow cytometry; assay type: functional, cell-based; conditions: Homo sapiens
[6] = system: T-24; assay: Effect on apoptosis in T24 cells assessed as increase in caspase 3 activation after 24 hrs relative to control by flow cytometry; assay type: functional, cell-based; conditions: Homo sapiens
[7] = system: T-24; assay: Effect on apoptosis in T24 cells assessed as increase in caspase 3 activation after 48 hrs relative to control by flow cytometry; assay type: functional, cell-based; conditions: Homo sapiens
[8] = system: HT-29; assay: Effect on apoptosis in HT29 cells assessed as increase in caspase 3 activation after 14 hrs relative to control by flow cytometry; assay type: functional, cell-based; conditions: Homo sapiens
[9] = system: HT-29; assay: Effect on apoptosis in HT29 cells assessed as increase in caspase 3 activation after 24 hrs relative to control by flow cytometry; assay type: functional, cell-based; conditions: Homo sapiens
[10] = system: HT-29; assay: Effect on apoptosis in HT29 cells assessed as increase in caspase 3 activation after 48 hrs relative to control by flow cytometry; assay type: functional, cell-based; conditions: Homo sapiens
[11] = biological target: T1, Caspase-3 (Homo sapiens) (UniProt P42574); assay: Effect on MDA-MB-231 cell lysate caspase 3 activity after 14 hrs relative to control by substrate assay; assay type: cell-based
T1 sequence (whole entry): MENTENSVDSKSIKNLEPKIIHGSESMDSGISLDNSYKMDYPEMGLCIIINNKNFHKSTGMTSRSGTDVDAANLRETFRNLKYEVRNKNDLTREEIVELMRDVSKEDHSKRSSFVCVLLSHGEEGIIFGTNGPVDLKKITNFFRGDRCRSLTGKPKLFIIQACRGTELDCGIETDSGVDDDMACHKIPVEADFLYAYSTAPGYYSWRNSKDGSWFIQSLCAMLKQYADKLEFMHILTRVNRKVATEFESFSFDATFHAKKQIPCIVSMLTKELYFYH

[12] = biological target: T1, Caspase-3 (Homo sapiens); assay: Effect on MDA-MB-231 cell lysate caspase 3 activity after 24 hrs relative to control by substrate assay; assay type: cell-based
[13] = biological target: T1, Caspase-3 (Homo sapiens); assay: Effect on MDA-MB-231 cell lysate caspase 3 activity after 48 hrs relative to control by substrate assay; assay type: cell-based
[14] = system: MDA-MB-231; assay: Increase in cell death of MDA-MB-231 cells; assay type: functional, cell-based; conditions: Homo sapiens, TDE = time-dependent effect
[15] = system: T-24; assay: Increase in cell death of T24 cells; assay type: functional, cell-based; conditions: Homo sapiens, TDE = time-dependent effect
[16] = system: HT-29; assay: Increase in cell death of HT29 cells; assay type: functional, cell-based; conditions: Homo sapiens, TDE = time-dependent effect
[17] = Cytotoxicity against CRL8799 cells; assay type: cell-based; conditions: human
[18] = Cytotoxicity against CRL11233 cells; assay type: cell-based; conditions: human
[19] = system: HT-29; assay: Cell cycle arrest in HT29 cells by accumulation at G1 phase at 8.9 uM after 8 hrs; assay type: functional, Homo sapiens
[20] = system: HT-29; assay: Cell cycle arrest in HT29 cells by accumulation at G1 phase at 8.9 uM after 10 hrs; assay type: functional, Homo sapiens
[21] = system: HT-29; assay: Cell cycle arrest in HT29 cells by accumulation at G1 phase at 8.9 uM after 12 hrs; assay type: functional, Homo sapiens
[22] = system: HT-29; assay: Cell cycle arrest in HT29 cells by accumulation at S phase at 8.9 uM after 8 hrs; assay type: functional, Homo sapiens
[23] = system: HT-29; assay: Cell cycle arrest in HT29 cells by accumulation at S phase at 8.9 uM after 10 hrs; assay type: functional, Homo sapiens
[24] = system: HT-29; assay: Cell cycle arrest in HT29 cells by accumulation at S phase at 8.9 uM after 12 hrs; assay type: functional, Homo sapiens
[25] = system: HT-29; assay: Cell cycle arrest in HT29 cells by accumulation at G2 phase at 8.9 uM after 8 hrs; assay type: functional, Homo sapiens
[26] = system: HT-29; assay: Cell cycle arrest in HT29 cells by accumulation at G2 phase at 8.9 uM after 10 hrs; assay type: functional, Homo sapiens
[27] = system: HT-29; assay: Cell cycle arrest in HT29 cells by accumulation at G2 phase at 8.9 uM after 12 hrs; assay type: functional, Homo sapiens
[28] = system: HT-29; assay: Cell cycle arrest in HT29 cells by accumulation at subG1 phase at 8.9 uM after 8 hrs; assay type: functional, Homo sapiens
[29] = system: HT-29; assay: Cell cycle arrest in HT29 cells by accumulation at subG1 phase at 8.9 uM after 10 hrs; assay type: functional, Homo sapiens
[30] = system: HT-29; assay: Cell cycle arrest in HT29 cells by accumulation at subG1 phase at 8.9 uM after 12 hrs; assay type: functional, Homo sapiens
[31] = system: T-24; assay: Cell cycle arrest in T24 cells by accumulation at G1 phase at 5 uM after 8 hrs; assay type: functional, Homo sapiens
[32] = system: T-24; assay: Cell cycle arrest in T24 cells by accumulation at G1 phase at 5 uM after 10 hrs; assay type: functional, Homo sapiens
[33] = system: T-24; assay: Cell cycle arrest in T24 cells by accumulation at G1 phase at 5 uM after 12 hrs; assay type: functional, Homo sapiens
[34] = system: T-24; assay: Cell cycle arrest in T24 cells by accumulation at S phase at 5 uM after 8 hrs; assay type: functional, Homo sapiens
[35] = system: T-24; assay: Cell cycle arrest in T24 cells by accumulation at S phase at 5 uM after 10 hrs; assay type: functional, Homo sapiens
[36] = system: T-24; assay: Cell cycle arrest in T24 cells by accumulation at S phase at 5 uM after 12 hrs; assay type: functional, Homo sapiens
[37] = system: T-24; assay: Cell cycle arrest in T24 cells by accumulation at G2 phase at 5 uM after 8 hrs; assay type: functional, Homo sapiens
[38] = system: T-24; assay: Cell cycle arrest in T24 cells by accumulation at G2 phase at 5 uM after 10 hrs; assay type: functional, Homo sapiens
[39] = system: T-24; assay: Cell cycle arrest in T24 cells by accumulation at G2 phase at 5 uM after 12 hrs; assay type: functional, Homo sapiens
[40] = system: T-24; assay: Cell cycle arrest in T24 cells by accumulation at subG1 phase at 5 uM after 8 hrs; assay type: functional, Homo sapiens
[41] = system: T-24; assay: Cell cycle arrest in T24 cells by accumulation at subG1 phase at 5 uM after 10 hrs; assay type: functional, Homo sapiens
[42] = system: T-24; assay: Cell cycle arrest in T24 cells by accumulation at subG1 phase at 5 uM after 12 hrs; assay type: functional, Homo sapiens
[43] = system: HT-29; assay: Cell cycle arrest in HT29 cells by accumulation at G1 phase after 24 hrs; assay type: functional, Homo sapiens
[44] = system: HT-29; assay: Cell cycle arrest in HT29 cells by accumulation at S phase after 24 hrs; assay type: functional, Homo sapiens
[45] = system: HT-29; assay: Cell cycle arrest in HT29 cells by accumulation at G2/M phase after 24 hrs at 0.89 uM; assay type: functional, Homo sapiens
[46] = system: HT-29; assay: Cell cycle arrest in HT29 cells by accumulation at subG1 phase after 24 hrs; assay type: functional, Homo sapiens
[47] = system: T-24; assay: Cell cycle arrest in T24 cells by accumulation at G1 phase after 24 hrs; assay type: functional, Homo sapiens
[48] = system: T-24; assay: Cell cycle arrest in T24 cells by accumulation at S phase after 24 hrs; assay type: functional, Homo sapiens
[49] = system: T-24; assay: Cell cycle arrest in T24 cells by accumulation at G2/M phase after 24 hrs at 0.6 uM; assay type: functional, Homo sapiens
[50] = system: T-24; assay: Cell cycle arrest in T24 cells by accumulation at subG1 phase after 24 hrs; assay type: functional, Homo sapiens
[51] = system: HT-29; assay: Effect on apoptosis in HT29 cells assessed as DNA fragmentation after 8 hrs; assay type: functional, cell-based; conditions: Homo sapiens
[52] = system: T-24; assay: Effect on apoptosis in T24 cells assessed as DNA fragmentation after 8 hrs; assay type: functional, cell-based; conditions: Homo sapiens

Molecule CCC1(O)C(=O)OCc2c1cc1n(c2=O)Cc2cc3ccccc3nc2-1 (single isomer, unassigned) [CAMPTOTHECIN] has an IC50 [1] of 0.014 µM, an IC50 [2] of 0.006 µM and an IC50 [3] of 0.291 µM.

With COc1ccc(CNc2nc(NCc3ccc(OC)cc3)c3cccnc3n2)cc1 the IC50 [1] was 8.9 µM, the IC50 [2] was 5 µM and the IC50 [4] was 1.5 µM. For the same molecule, the Activity [5] was “Active”, the Activity [6] was “Active” and the Activity [7] was “Active”. The Activity [8] was “Active”, the Activity [9] was “Active” and the Activity [10] was “Active”. For the same molecule, the Activity [11] was “inactive”, the Activity [12] was “inactive” and the Activity [13] was “inactive”. For the same molecule, the Activity [14] was “tde”, the Activity [15] was “tde” and the Activity [16] was “tde”. For the same molecule, the Activity [17] was “Non-toxic”, the Activity [18] was “Non-toxic” and the Activity [19] was 35%. For the same molecule, the Activity [20] was 22%, the Activity [21] was 17% and the Activity [22] was 19%. For the same molecule, the Activity [23] was 17%, the Activity [24] was 17% and the Activity [25] was 38%. The Activity [26] was 36%, the Activity [27] was 33% and the Activity [28] was 8%. For the same molecule, the Activity [29] was 25%, the Activity [30] was 34% and the Activity [31] was 36%. It also gave an Activity [32] of 28%, an Activity [33] of 26% and an Activity [34] of 13%. It also gave an Activity [35] of 13%, an Activity [36] of 10% and an Activity [37] of 43%. It also gave an Activity [38] of 40%, an Activity [39] of 36% and an Activity [40] of 7%. It also gave an Activity [41] of 18%, an Activity [42] of 28% and an Activity [43] of 30%. It also gave an Activity [44] of 11%, an Activity [45] of 52% and an Activity [46] of 7%. For the same molecule, the Activity [47] was 42%, the Activity [48] was 13% and the Activity [49] was 38%. The Activity [50] was 6%, the Activity [51] was “Active” and the Activity [52] was “Active”.
